Results reported in patent US7317033B2, “Substituted thiophenes: compositions, processes of making, and uses in disease treatment and diagnosis” (Sanofi-Aventis Deutschland GmbH, priority 2002, dated 2008).
Structures can show the parent of a compound that is named as a salt.

Molecular target: T1, rNHE3 (Rattus norvegicus, UniProt P26433)
T1 construct: host or cells: cells, not specified
Assay: recovery of intracellular pH (pHi) after acidification, BCECF fluorescence, rNHE3
Format: cell-based
Conditions: pH recovery recorded for three minutes
Method: In this test, the recovery of the intracellular pH (pHi) after an acidification, which starts when the NHE is capable of functioning, even under bicarbonate-free conditions, was determined. For this purpose, the pHi was determined using the pH-sensitive fluorescent dye BCECF (Calbiochem, the precursor BCECF-AM is employed). The cells were initially loaded with BCECF. The BCECF fluorescence was determined in a “ratio fluorescence spectrometer” (Photon Technology International, South Brunswick, N.J., USA) with excitation wavelengths of 505 and 440 nm and an emission wavelength of 535 nm, and was converted into the pHi using calibration plots. The cells were incubated in NH4Cl buffer (pH 7.4) (NH4Cl buffer: 115 mM NaCl, 20 mM NH4Cl, 5 mM KCl, 1 mM CaCl2, 1 mM MgSO4, 20 mM Hepes, 5 mM glucose, 1 mg/ml BSA; a pH of 7.4 is established with 1 M NaOH) even during the BCECF loading. […] The subsequent rate of pH recovery was recorded in the case of NHE1 for two minutes, in the case of NHE2 for five minutes and in the case of NHE3 for three minutes. […] Recovery of the intracellular pH at each tested concentration of a substance was expressed as a percentage of the maximum recovery. Using the Sigma-Plot program, the IC50 value of the substance in question was calculated for the individual NHE subtypes using the percentages for pH recovery.

T1 sequence (P26433 29-831): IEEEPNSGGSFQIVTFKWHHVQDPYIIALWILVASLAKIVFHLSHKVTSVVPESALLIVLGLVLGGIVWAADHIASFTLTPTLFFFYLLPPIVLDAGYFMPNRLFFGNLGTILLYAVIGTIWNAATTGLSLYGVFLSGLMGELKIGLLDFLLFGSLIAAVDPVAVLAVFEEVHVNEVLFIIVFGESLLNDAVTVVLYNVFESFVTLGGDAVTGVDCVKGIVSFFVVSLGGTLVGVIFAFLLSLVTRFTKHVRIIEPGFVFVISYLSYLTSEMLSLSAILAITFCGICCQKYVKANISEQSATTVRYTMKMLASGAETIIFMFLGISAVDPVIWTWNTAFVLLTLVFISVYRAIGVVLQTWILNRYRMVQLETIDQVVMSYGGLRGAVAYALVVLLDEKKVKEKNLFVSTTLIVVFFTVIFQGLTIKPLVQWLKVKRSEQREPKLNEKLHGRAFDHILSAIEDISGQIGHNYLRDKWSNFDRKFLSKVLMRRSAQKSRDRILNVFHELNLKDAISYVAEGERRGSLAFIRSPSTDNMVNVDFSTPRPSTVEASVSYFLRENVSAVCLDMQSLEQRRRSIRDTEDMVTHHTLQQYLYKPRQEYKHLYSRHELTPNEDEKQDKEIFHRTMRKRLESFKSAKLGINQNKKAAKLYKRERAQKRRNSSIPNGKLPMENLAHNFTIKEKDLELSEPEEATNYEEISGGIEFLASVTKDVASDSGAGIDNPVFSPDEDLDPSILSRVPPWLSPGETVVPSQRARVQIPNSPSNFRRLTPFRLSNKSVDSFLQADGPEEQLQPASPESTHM

| SMILES | IC50 [nM] |
| --- | --- |
| Cc1csc(Cl)c1Nc1nc2ccccc2[nH]1 [Example 12, 2-Chloro-3N-(2-benzimidazolyl)-4-methyl-3-thienylamine hydrochloride] | 120 |
| Cc1csc(Cl)c1NC1=N[C@@H]2CCCC[C@H]2N1 [Example 16, trans-R,R-2-chloro-3N-(3a,4,5,6,7,7a-hexahydro-1H-2-benzimidazolyl)-4-methyl-3-thienylamine hydrochloride] | 270 |

Molecular target: T2, hNHE3 (Homo sapiens, UniProt P48764)
T2 construct: host or cells: cells, not specified
T2 sequence (P48764 26-834): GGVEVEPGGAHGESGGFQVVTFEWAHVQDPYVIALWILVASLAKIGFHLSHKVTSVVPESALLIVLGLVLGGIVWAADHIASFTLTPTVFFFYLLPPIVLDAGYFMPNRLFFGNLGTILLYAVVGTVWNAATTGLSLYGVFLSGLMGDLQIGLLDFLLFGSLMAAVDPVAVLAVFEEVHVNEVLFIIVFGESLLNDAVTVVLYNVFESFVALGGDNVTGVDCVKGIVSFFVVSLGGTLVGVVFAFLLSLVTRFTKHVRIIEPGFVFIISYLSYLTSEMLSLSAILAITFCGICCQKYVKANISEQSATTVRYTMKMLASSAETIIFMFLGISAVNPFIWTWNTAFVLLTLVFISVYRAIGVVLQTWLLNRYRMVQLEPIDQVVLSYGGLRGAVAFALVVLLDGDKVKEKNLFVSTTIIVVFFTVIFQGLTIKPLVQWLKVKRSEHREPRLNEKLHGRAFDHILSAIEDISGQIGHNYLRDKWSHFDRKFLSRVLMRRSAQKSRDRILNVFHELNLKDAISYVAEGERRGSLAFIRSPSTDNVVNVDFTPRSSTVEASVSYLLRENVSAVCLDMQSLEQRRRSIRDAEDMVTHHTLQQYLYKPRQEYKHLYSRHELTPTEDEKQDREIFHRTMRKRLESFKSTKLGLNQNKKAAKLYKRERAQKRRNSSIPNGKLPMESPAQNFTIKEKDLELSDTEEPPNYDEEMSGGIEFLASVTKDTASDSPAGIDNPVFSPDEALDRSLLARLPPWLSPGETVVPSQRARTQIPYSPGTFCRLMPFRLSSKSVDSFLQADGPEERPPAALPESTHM
Assay: recovery of intracellular pH (pHi) after acidification, BCECF fluorescence, hNHE3
Format: cell-based
Conditions: pH recovery recorded for three minutes
Method: In this test, the recovery of the intracellular pH (pHi) after an acidification, which starts when the NHE is capable of functioning, even under bicarbonate-free conditions, was determined. For this purpose, the pHi was determined using the pH-sensitive fluorescent dye BCECF (Calbiochem, the precursor BCECF-AM is employed). The cells were initially loaded with BCECF. The BCECF fluorescence was determined in a “ratio fluorescence spectrometer” (Photon Technology International, South Brunswick, N.J., USA) with excitation wavelengths of 505 and 440 nm and an emission wavelength of 535 nm, and was converted into the pHi using calibration plots. The cells were incubated in NH4Cl buffer (pH 7.4) (NH4Cl buffer: 115 mM NaCl, 20 mM NH4Cl, 5 mM KCl, 1 mM CaCl2, 1 mM MgSO4, 20 mM Hepes, 5 mM glucose, 1 mg/ml BSA; a pH of 7.4 is established with 1 M NaOH) even during the BCECF loading. The intracellular acidification was induced by addition of 975 μl of an NH4Cl-free buffer (see below) to 25 μl aliquots of the cells incubated in NH4Cl buffer. The subsequent rate of pH recovery was recorded in the case of NHE1 for two minutes, in the case of NHE2 for five minutes and in the case of NHE3 for three minutes. To calculate the inhibitory power of the tested substances, the cells were initially investigated in buffers in which complete or absolutely no pH recovery took place. For complete pH recovery (100%), the cells were incubated in Na^+-containing buffer (133.8 mM NaCl, 4.7 mM KCl, 1.25 mM CaCl2, 1.25 mM MgCl2, 0.97 mM Na2HPO4, 0.23 mM NaH2PO4, 5 mM Hepes, 5 mM glucose, a pH of 7.0 is established with 1 M NaOH). To determine the 0% value, the cells were incubated in an Na^+-free buffer (133.8 mM choline chloride, 4.7 mM KCl, 1.25 mM CaCl2, 1.25 mM MgCl2, 0.97 mM K2HPO4, 0.23 mM KH2PO4, 5 mM Hepes, 5 mM glucose, a pH of 7.0 is established with 1 M KOH). The substances to be tested were made up in the Na^+-containing buffer. Recovery of the intracellular pH at each tested concentration of a substance was expressed as a percentage of the maximum recovery. Using the Sigma-Plot program, the IC50 value of the substance in question was calculated for the individual NHE subtypes using the percentages for pH recovery.

| SMILES | IC50 [nM] |
| --- | --- |
| Clc1cscc1NC1=N[C@H]2CCCC[C@@H]2N1 [Example 60, trans-(3aS,7aS)-4-Chloro-3N-(3a,4,5,6,7,7a-hexahydro-1H-2-benzimidazolyl)-3-thienylamine Hydrochloride] | 190 |
| Cc1csc(Br)c1Nc1nc2ccccc2[nH]1 [Example 18, 2-Bromo-3N-(2-benzimidazolyl)-4-methyl-3-thienylamine hydrochloride] | 120 |
| Cc1csc(Cl)c1N(C)c1nc2ccccc2[nH]1 [Example 44, (1H-Benzimidazol-2-yl)-(2-chloro-4-methylthiophen-3-yl)methylamine] | 1590 |
| Clc1csc(Cl)c1NC1=N[C@@H]2CCCC[C@H]2N1 [Example 63, trans-R,R-2,4-Dichloro-3N-(3a,4,5,6,7,7a-hexahydro-1H-2-benzimidazolyl)-3-thienylamine Hydrochloride] | 540 |
| Cc1csc(Cl)c1Nc1nc2c(O)cccc2[nH]1 [Example 38, 2-Chloro-3N-(4-hydroxy-2-benzimidazolylamino)-4-methylthiophene hydrochloride] | 840 |
| Cc1csc(Cl)c1Nc1nc2cc(F)ccc2[nH]1 [Example 2, 2-Chloro-3N-(5-fluoro-2-benzimidazolyl)-4-methyl-3-thienylamine hydrochloride] | 620 |
| Fc1cc2nc(Nc3c(Cl)csc3Cl)[nH]c2cc1F [Example 56, (2,4-Dichloro-thiophen-3-yl)-(5,6-difluoro-1H-benzoimidazol-2-yl)-amine-hydrochloride] | 220 |
| Fc1ccc2[nH]c(Nc3c(Cl)csc3Cl)nc2c1 [Example 54, (2,4-Dichloro-thiophen-3-yl)-(5-fluoro-1H-benzoimidazol-2-yl)-amine-hydrochloride] | 220 |
| Cc1csc(Br)c1NC1=N[C@@H]2CCCC[C@H]2N1 [Example 19, trans-R,R-2-Bromo-3N-(3a,4,5,6,7,7a-hexahydro-1H-2-benz-imidazolyl)-4-methyl-3-thienylamine hydrochloride] | 560 |
| Clc1csc(Br)c1Nc1nc2ccccc2[nH]1 [Example 53, 2-Bromo-4-chloro-3N-(2-benzimidazolylamino)thiophene hydrochloride] | 140 |

Test system: not given
Assay: not given
Conditions: not given

| SMILES | melting point [°C] |
| --- | --- |
| Cc1csc(Cl)c1Nc1nc2cc(F)ccc2[nH]1 (as salt: hydrochloride) [Example 2, 2-Chloro-3N-(5-fluoro-2-benzimidazolyl)-4-methyl-3-thienylamine hydrochloride] | 200 to 202 |
| Cc1csc(Cl)c1NC1=N[C@@H]2CCCC[C@H]2N1 (as salt: hydrochloride) [Example 16, trans-R,R-2-chloro-3N-(3a,4,5,6,7,7a-hexahydro-1H-2-benzimidazolyl)-4-methyl-3-thienylamine hydrochloride] | 260 to 262 |
